Patent US20260125382A1, “COMPOUNDS FOR INHIBITING OR DEGRADING CDK2 AND/OR CDK9 AND MEDICINAL USE THEREOF” (KOREA RESEARCH INSTITUTE OF CHEMICAL TECHNOLOGY, priority 2022, published 2026)

Experiments:
CDK9 = molecular target: T1, CDK9 (Homo sapiens, UniProt P50750); test: CDK protein degradation activity (Western blotting), CDK9; assay type: cell-based; conditions: MDA-MB-231 cells, 16 hours, Western blot
T1 construct: endogenous in cells; host or cells: MDA-MB-231
Experimental: (§1) In order to evaluate the CDK protein degradation activity of the compounds according to the present invention, the following experiment was conducted.
(§2) MDA-MB-231 cells were seeded at 5×10^5 cells per well in a 6-well plate. The next day, the compounds were treated in each well to achieve final concentrations of 100 nM, 1 μM, and 10 μM. For the control group, an equal amount of DMSO was treated in the well as the compound. After 16 hours of treatment, cells were collected, and cell lysates were prepared using Triton X-100 lysis buffer (50 mM HEPES, pH 7.5, 40 mM NaCl, 1% Triton X-100, 1 mM EDTA, 1 mM EGTA, 10 mM pyrophosphate, 10 mM β-glycerophosphate, 50 mM NaF, 1 mM NaVO4, protease inhibitor). Cell lysates were quantified and separated by size using sodium dodecyl sulfate-polyacrylamide gel electrophoresis (SDS-PAGE). Western blotting was then performed using antibodies that recognize CDK2, CDK9, and tubulin, respectively. The results obtained by Western blotting were quantitatively analyzed using the ImageJ program, and representative images according to the experimental results are shown in FIG. 1.

CDK2 = molecular target: T2, CDK2 (Homo sapiens, UniProt P24941); test: CDK protein degradation activity (Western blotting), CDK2; assay type: cell-based; conditions: MDA-MB-231 cells, 16 hours, Western blot
T2 construct: endogenous in cells; host or cells: MDA-MB-231
Experimental: as §1, §2

T1 sequence (P50750 whole entry): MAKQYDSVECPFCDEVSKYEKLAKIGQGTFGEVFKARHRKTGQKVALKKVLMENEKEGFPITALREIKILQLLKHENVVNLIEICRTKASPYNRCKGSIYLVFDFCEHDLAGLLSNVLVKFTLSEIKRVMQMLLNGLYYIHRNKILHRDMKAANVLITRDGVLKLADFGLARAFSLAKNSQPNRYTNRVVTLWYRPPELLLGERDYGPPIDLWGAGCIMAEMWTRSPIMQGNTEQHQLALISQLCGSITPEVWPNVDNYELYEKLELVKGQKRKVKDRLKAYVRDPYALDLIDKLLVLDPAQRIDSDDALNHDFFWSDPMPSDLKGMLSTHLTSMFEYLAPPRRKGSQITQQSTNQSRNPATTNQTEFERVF

Enzyme degradation CDK9 (% remaining) @ 0.1 μM (CDK9) | Enzyme degradation CDK9 (% remaining) @ 1 μM (CDK9) | Enzyme degradation CDK9 (% remaining) @ 10 μM (CDK9) | Enzyme degradation CDK2 (% remaining) @ 0.1 μM (CDK2) | Enzyme degradation CDK2 (% remaining) @ 1 μM (CDK2) | Enzyme degradation CDK2 (% remaining) @ 10 μM (CDK2) | Structure (SMILES)
10% | 0% | 0% | 70% | 40% | 30% | Cc1cccc(C(=O)N[C@H]2C[C@@H](n3cnc4c(NC5CCN(CCC6CCN(C(=O)COc7ccc8c(c7)C(=O)N(C7CCC(=O)NC7=O)C8=O)CC6)CC5)ncnc43)C2)n1 (stereo partly drawn) [Compound 31, N-((1s,3s)-3-(6-((1-(2-(1-(2-((2-(2,6-dioxopiperidin-3-yl)-1,3-dioxoisoindolin-5-yl)oxy)acetyl)piperidin-4-yl)ethyl)piperidin-4-yl)amino)-9H-purin-9-yl)cyclobutyl)-6-methylpicolinamide]
50% | 0% | 0% | 60% | 20% | 20% | Cc1cccc(C(=O)NC2CC(n3cnc4c(NC5CCN(CCC6CCN(C(=O)COc7cccc8c7C(=O)N([C@H]7CCC(=O)NC7=O)C8=O)CC6)CC5)ncnc43)C2)n1 (stereo partly drawn) [Compound 32, N-((1s,3s)-3-(6-((1-(2-(1-(2-((2-(2,6-dioxopiperidin-3-yl)-1,3-dioxoisoindolin-4-yl)oxy)acetyl)piperidin-4-yl)ethyl)piperidin-4-yl)amino)-9H-purin-9-yl)cyclobutyl)-6-methylpicolinamide]
0% | 0% | 10% | 50% | 50% | 100% | Cc1cccc(C(=O)N[C@H]2C[C@@H](n3cnc4c(NC5CCN(CCC6CCN(C(=O)CNc7cccc8c7C(=O)N(C7CCC(=O)NC7=O)C8=O)CC6)CC5)ncnc43)C2)n1 (stereo partly drawn) [Compound 34, N-((1s,3s)-3-(6-((1-(2-(1-((2-(2,6-dioxopiperidin-3-yl)-1,3-dioxoisoindolin-4-yl)glycyl)piperidin-4-yl)ethyl)piperidin-4-yl)amino)-9H-purin-9-yl)cyclobutyl)-6-methylpicolinamide]
0% | 10% | 10% | 100% | 60% | 60% | Cc1cccc(C(=O)N[C@H]2C[C@@H](n3cnc4c(NC5CCN(CCC6CCN(c7ccc8c(c7)C(=O)N([C@H]7CCC(=O)NC7=O)C8=O)CC6)CC5)ncnc43)C2)n1 [Compound 35, N-((1s,3s)-3-(6-((1-(2-(1-(2-(2,6-dioxopiperidin-3-yl)-1,3-dioxoisoindolin-5-yl)piperidin-4-yl)ethyl)piperidin-4-yl)amino)-9H-purin-9-yl)cyclobutyl)-6-methylpicolinamide]
30% | 10% | 20% | 100/100/100% | 100/100/100% | 100/100/100% | Cc1cccc(C(=O)N[C@H]2C[C@@H](n3cnc4c(NC5CCN(CCC6CCN(c7cccc8c7C(=O)N([C@H]7CCC(=O)CC7=O)C8=O)CC6)CC5)ncnc43)C2)n1 [Compound 36, N-((1s,3s)-3-(6-((1-(2-(1-(2-(2,4-dioxocyclohexyl)-1,3-dioxoisoindolin-4-yl)piperidin-4-yl)ethyl)piperidin-4-yl)amino)-9H-purin-9-yl)cyclobutyl)-6-methylpicolinamide]
0/0/0% | 0/0/0% | 0/0/0% | 40% | 30% | 20% | Cc1cccc(C(=O)N[C@H]2C[C@@H](n3cnc4c(NC5CCN(CCCN6CCN(C(=O)CNc7cccc8c7C(=O)N([C@H]7CCC(=O)NC7=O)C8=O)CC6)CC5)ncnc43)C2)n1 [Compound 38, N-((1s,3s)-3-(6-((1-(3-(4-((2-(2,6-dioxopiperidin-3-yl)-1,3-dioxoisoindolin-4-yl)glycyl)piperazin-1-yl)propyl)piperidin-4-yl)amino)-9H-purin-9-yl)cyclobutyl)-6-methylpicolinamide]
30% | 0% | 10% | 100% | 60% | 30% | Cc1cccc(C(=O)NC2CC(n3cnc4c(NC5CCN(CCCN6CCN(c7cccc8c7C(=O)N([C@H]7CCC(=O)NC7=O)C8=O)CC6)CC5)ncnc43)C2)n1 (stereo partly drawn) [Compound 42, N-((1s,3s)-3-(6-((1-(3-(4-(2-(2,6-dioxopiperidin-3-yl)-1,3-dioxoisoindolin-4-yl)piperazin-1-yl)propyl)piperidin-4-yl)amino)-9H-purin-9-yl)cyclobutyl)-6-methylpicolinamide]
50% | 0% | 0% | 90% | 60% | 70% | Cc1cccc(C(=O)N[C@H]2C[C@@H](n3cnc4c(NC5CCN(CCOC6CCN(C(=O)COc7ccc8c(c7)C(=O)N([C@H]7CCC(=O)NC7=O)C8=O)CC6)CC5)ncnc43)C2)n1 [Compound 43, N-((1s,3s)-3-(6-((1-(2-((1-(2-((2-(2,6-dioxopiperidin-3-yl)-1,3-dioxoisoindolin-5-yl)oxy)acetyl)piperidin-4-yl)oxy)ethyl)piperidin-4-yl)amino)-9H-purin-9-yl)cyclobutyl)-6-methylpicolinamide]
0/0/0% | 0/0/0% | 0/0/0% | 80% | 60% | 90% | Cc1cccc(C(=O)N[C@H]2C[C@@H](n3cnc4c(NC5CCN(CCOC6CCN(C(=O)CNc7ccc8c(c7)C(=O)N(C7CCC(=O)NC7=O)C8=O)CC6)CC5)ncnc43)C2)n1 (stereo partly drawn) [Compound 45, N-((1s,3s)-3-(6-((1-(2-((1-((2-(2,6-dioxopiperidin-3-yl)-1,3-dioxoisoindolin-5-yl)glycyl)piperidin-4-yl)oxy)ethyl)piperidin-4-yl)amino)-9H-purin-9-yl)cyclobutyl)-6-methylpicolinamide]
20% | 10% | 30% | 80% | 90% | 100% | Cc1cccc(C(=O)NC2CC(n3cnc4c(NC5CCN(CCOC6CCN(C(=O)CNc7cccc8c7C(=O)N([C@H]7CCC(=O)NC7=O)C8=O)CC6)CC5)ncnc43)C2)n1 (stereo partly drawn) [Compound 46, N-((1s,3s)-3-(6-((1-(2-((1-((2-(2,6-dioxopiperidin-3-yl)-1,3-dioxoisoindolin-4-yl)glycyl)piperidin-4-yl)oxy)ethyl)piperidin-4-yl)amino)-9H-purin-9-yl)cyclobutyl)-6-methylpicolinamide]
40% | 0% | 0% | 100/100/100% | 100/100/100% | 100/100/100% | Cc1cccc(C(=O)N[C@H]2C[C@@H](n3cnc4c(NC5CCN(CCOC6CCN(c7ccc8c(c7)C(=O)N([C@H]7CCC(=O)NC7=O)C8=O)CC6)CC5)ncnc43)C2)n1 [Compound 47, N-((1s,3s)-3-(6-((1-(2-((1-(2-(2,6-dioxopiperidin-3-yl)-1,3-dioxoisoindolin-5-yl)piperidin-4-yl)oxy)ethyl)piperidin-4-yl)amino)-9H-purin-9-yl)cyclobutyl)-6-methylpicolinamide]
50% | 20% | 20% | 100/100/100% | 100/100/100% | 100/100/100% | Cc1cccc(C(=O)NC2CC(n3cnc4c(NC5CCN(CCOC6CCN(c7cccc8c7C(=O)N([C@H]7CCC(=O)NC7=O)C8=O)CC6)CC5)ncnc43)C2)n1 (stereo partly drawn) [Compound 48, N-((1s,3s)-3-(6-((1-(2-((1-(2-(2,6-dioxopiperidin-3-yl)-1,3-dioxoisoindolin-4-yl)piperidin-4-yl)oxy)ethyl)piperidin-4-yl)amino)-9H-purin-9-yl)cyclobutyl)-6-methylpicolinamide]
